From patent US20150141381A1, “TETRACYCLINE COMPOUNDS HAVING TARGET THERAPEUTIC ACTIVITIES” (Paratek Pharmaceuticals, Inc., priority 2001, published 2015)
Like-named read-outs stand apart in the source and are kept apart here.

Columns and labels:
E. coli mL308 225 = assay: In Vitro Anti-Bacterial Activity Assay (MIC), gram negative; format: cell-based; details: Escherichia coli, ML308225, 18 h
S. aureus RN450 = assay: In Vitro Anti-Bacterial Activity Assay (MIC), gram positive; format: cell-based; details: Staphylococcus aureus, RN450, 18 h
[1] = MIC class, Table 3 (Continued), read-out: Gram− activity
[2] = MIC class, Table 3 (Continued), read-out: Gram+ activity
[3] = gram negative bacteria, read-out: Antibiotic Activity Gram − (MIC)
[4] = gram positive bacteria, read-out: Antibiotic Activity Gram + (MIC)

Compound	MIC (E. coli mL308 225; [1]) [µg/mL]	MIC (S. aureus RN450; [2]) [µg/mL]	MIC (E. coli mL308 225; [3]) [µg/mL]	MIC (S. aureus RN450; [4]) [µg/mL]
CN(C)[C@@H]1C(O)=C(C(N)=O)C(=O)[C@@]2(O)C(O)=C3C(=O)c4c(O)ccc(C#Cc5ccc(N(O)O)cc5)c4C[C@H]3C[C@@H]12	< 4	< 4		
Cc1ccc(CCc2ccc(O)c3c2C[C@H]2C[C@H]4[C@H](N(C)C)C(O)=C(C(N)=O)C(=O)[C@@]4(O)C(O)=C2C3=O)cc1	< 4	< 4		
CC(=O)c1ccc(-c2ccc(O)c3c2C[C@H]2C[C@H]4[C@H](N(C)C)C(O)=C(C(N)=O)C(=O)[C@@]4(O)C(O)=C2C3=O)cc1	< 4	< 4		
CCOC(=O)c1cccc(-c2ccc(O)c3c2C[C@H]2C[C@H]4[C@H](N(C)C)C(O)=C(C(N)=O)C(=O)[C@@]4(O)C(O)=C2C3=O)c1	< 4	< 4		
CN(C)[C@@H]1C(O)=C(C(N)=O)C(=O)[C@@]2(O)C(O)=C3C(=O)c4c(O)ccc(-c5ccc(Cl)o5)c4C[C@H]3C[C@@H]12	< 4	< 4		
CN(C)[C@@H]1C(O)=C(C(N)=O)C(=O)[C@@]2(O)C(O)=C3C(=O)c4c(O)ccc(/C=C/c5ccccc5)c4C[C@H]3C[C@@H]12	< 4	< 4		
CCOCc1cccc(-c2ccc(O)c3c2C[C@H]2C[C@H]4[C@H](N(C)C)C(O)=C(C(N)=O)C(=O)[C@@]4(O)C(O)=C2C3=O)c1	< 4	< 4		
COc1ccc(C#Cc2ccc(O)c3c2C[C@H]2C[C@H]4[C@H](N(C)C)C(O)=C(C(N)=O)C(=O)[C@@]4(O)C(O)=C2C3=O)cc1	< 4	< 4		
CN(C)[C@@H]1C(O)=C(C(N)=O)C(=O)[C@@]2(O)C(O)=C3C(=O)c4c(O)ccc(C#CC5(O)CCCCC5)c4C[C@H]3C[C@@H]12	< 4	< 4		
CN(C)CC#Cc1cc(N(C)C)c2c(c1O)C(=O)C1=C(O)[C@]3(O)C(=O)C(C(N)=O)=C(O)[C@@H](N(C)C)[C@@H]3C[C@@H]1C2	> 4	> 4		
COc1ccc(OC)c(-c2ccc(O)c3c2C[C@H]2C[C@H]4[C@H](N(C)C)C(O)=C(C(N)=O)C(=O)[C@@]4(O)C(O)=C2C3=O)c1	< 4	< 4		
CCc1ccc(O)c2c1C[C@H]1C[C@H]3[C@H](N(C)C)C(O)=C(C(N)=O)C(=O)[C@@]3(O)C(O)=C1C2=O	< 4	< 4		
CN(C)[C@@H]1C(O)=C(C(N)=O)C(=O)[C@@]2(O)C(O)=C3C(=O)c4c(O)ccc(/C=C(\Cl)CO)c4C[C@H]3C[C@@H]12	> 4	< 4		
CN(C)[C@@H]1C(O)=C(C(N)=O)C(=O)[C@@]2(O)C(O)=C3C(=O)c4c(O)ccc(C#CC5=CCCCC5)c4C[C@H]3C[C@@H]12	< 4	< 4		
CN(C)[C@@H]1C(O)=C(C(N)=O)C(=O)[C@@]2(O)C(O)=C3C(=O)c4c(O)ccc(CC(Cl)C5=CCCCC5)c4C[C@H]3C[C@@H]12 (some centres unmarked)	< 4	< 4		
Cc1cc(C)cc(/C=C2\c3cccc(O)c3C(=O)C3=C(O)[C@]4(O)C(=O)C(C(N)=O)=C(O)[C@@H](N(C)C)[C@@H]4[C@@H](O)[C@@H]32)c1	< 4	< 4		
Cc1ccc(C#Cc2ccc(O)c3c2C[C@H]2C[C@H]4[C@H](N(C)C)C(O)=C(C(N)=O)C(=O)[C@@]4(O)C(O)=C2C3=O)cc1	< 4	< 4		
Cc1ccc(-c2ccc(O)c3c2C[C@H]2C[C@H]4[C@H](N(C)C)C(O)=C(C(N)=O)C(=O)[C@@]4(O)C(O)=C2C3=O)s1	< 4	< 4		
COc1ccc(Cl)cc1-c1ccc(O)c2c1C[C@H]1C[C@H]3[C@H](N(C)C)C(O)=C(C(N)=O)C(=O)[C@@]3(O)C(O)=C1C2=O	< 4	< 4		
CN(C)[C@@H]1C(O)=C(C(N)=O)C(=O)[C@@]2(O)C(O)=C3C(=O)c4c(O)ccc(-c5ccc(C#N)cc5)c4C[C@H]3C[C@@H]12	< 4	< 4		
CN(C)[C@@H]1C(O)=C(C(N)=O)C(=O)[C@@]2(O)C(O)=C3C(=O)c4c(O)ccc(-c5ccccc5Cl)c4C[C@H]3C[C@@H]12	< 4	< 4		
Cc1csc(-c2ccc(O)c3c2C[C@H]2C[C@H]4[C@H](N(C)C)C(O)=C(C(N)=O)C(=O)[C@@]4(O)C(O)=C2C3=O)c1	< 4	< 4		
CN(C)[C@@H]1C(O)=C(C(N)=O)C(=O)[C@@]2(O)C(O)=C3C(=O)c4c(O)ccc(-c5ccco5)c4C[C@H]3C[C@@H]12	< 4	< 4		
CN(C)[C@@H]1C(O)=C(C(N)=O)C(=O)[C@@]2(O)C(O)=C3C(=O)c4c(O)ccc(C#Cc5cccnc5)c4C[C@H]3C[C@@H]12	< 4	< 4		
CN(C)[C@@H]1C(O)=C(C(N)=O)C(=O)[C@@]2(O)C(O)=C3C(=O)c4c(O)ccc(C#Cc5ccccc5F)c4C[C@H]3C[C@@H]12	< 4	< 4		

Compound	MIC (E. coli mL308 225; [1]) [µg/mL]	MIC (S. aureus RN450; [2]) [µg/mL]	MIC (E. coli mL308 225; [3]) [µg/mL]	MIC (S. aureus RN450; [4]) [µg/mL]
COc1ccc(CCc2ccc(O)c3c2C[C@H]2C[C@H]4[C@H](N(C)C)C(O)=C(C(N)=O)C(=O)[C@@]4(O)C(O)=C2C3=O)cc1	< 4	< 4		
COc1cccc(C#Cc2ccc(O)c3c2C[C@H]2C[C@H]4[C@H](N(C)C)C(O)=C(C(N)=O)C(=O)[C@@]4(O)C(O)=C2C3=O)c1	< 4	< 4		
CCC(CC)c1ccc(CCc2ccc(O)c3c2C[C@H]2C[C@H]4[C@H](N(C)C)C(O)=C(C(N)=O)C(=O)[C@@]4(O)C(O)=C2C3=O)cc1	< 4	< 4		
CN(C)[C@@H]1C(O)=C(C(N)=O)C(=O)[C@@]2(O)C(O)=C3C(=O)c4c(O)ccc(C#CCc5ccccc5)c4C[C@H]3C[C@@H]12	< 4	< 4		
CN(C)[C@@H]1C(O)=C(C(N)=O)C(=O)[C@@]2(O)C(O)=C3C(=O)c4c(O)ccc(/C=C/S(C)(C)C)c4C[C@H]3C[C@@H]12	< 4	< 4		
CC#Cc1ccc(O)c2c1C[C@H]1C[C@H]3[C@H](N(C)C)C(O)=C(C(N)=O)C(=O)[C@@]3(O)C(O)=C1C2=O	< 4	< 4		
Cc1cc(C)cc(-c2cc(N(C)C)c3c(c2O)C(=O)C2=C(O)[C@]4(O)C(=O)C(C(N)=O)=C(O)[C@@H](N(C)C)[C@@H]4C[C@@H]2C3)c1	< 4	< 4		
Cc1ccsc1/C=C/c1ccc(O)c2c1C[C@H]1C[C@H]3[C@H](N(C)C)C(O)=C(C(N)=O)C(=O)[C@@]3(O)C(O)=C1C2=O	< 4	< 4		
COc1ccc(/C=C/c2ccc(O)c3c2C[C@H]2C[C@H]4[C@H](N(C)C)C(O)=C(C(N)=O)C(=O)[C@@]4(O)C(O)=C2C3=O)cc1OC	< 4	< 4		
C[C@H]1c2ccc(N(C)C3CCN(C)CC3)c(O)c2C(=O)C2=C(O)[C@]3(O)C(=O)C(C(N)=O)=C(O)[C@@H](N(C)C)[C@@H]3[C@@H](O)[C@@H]21			> 4	> 4
CN(C)[C@@H]1C(O)=C(C(N)=O)C(=O)[C@@]2(O)C(O)=C3C(=O)c4c(ccc(NC5CCN(Cc6ccccc6)CC5)c4O)C[C@H]3C[C@@H]12			> 4	> 4
COC(=O)c1ccc(O)c2c1C[C@H]1C[C@H]3[C@H](N(C)C)C(O)=C(C(N)=O)C(=O)[C@@]3(O)C(O)=C1C2=O			< 4	< 4
CN1CCC(N(C)c2ccc3c(c2O)C(=O)C2=C(O)[C@]4(O)C(=O)C(C(N)=O)=C(O)[C@@H](N(C)C)[C@@H]4C[C@@H]2C3)CC1			> 4	> 4
CCCCN(c1ccc2c(c1O)C(=O)C1=C(O)[C@]3(O)C(=O)C(C(N)=O)=C(O)[C@@H](N(C)C)[C@@H]3[C@@H](O)[C@@H]1[C@H]2C)C1CCN(C)CC1			> 4	< 4
CN(C)[C@@H]1C(O)=C(C(N)=O)C(=O)[C@@]2(O)C(O)=C3C(=O)c4c(O)ccc(C5CCOC5)c4C[C@H]3C[C@@H]12 (some centres unmarked)			< 4	< 4
CCc1cc(NCC(C)C)c(O)c2c1C[C@H]1C[C@H]3[C@H](N(C)C)C(O)=C(C(N)=O)C(=O)[C@@]3(O)C(O)=C1C2=O			< 4	< 4
CN(C)[C@@H]1C(O)=C(C(N)=O)C(=O)[C@@]2(O)C(O)=C3C(=O)c4c(O)ccc(C(=O)C(=O)N5CCOCC5)c4C[C@H]3C[C@@H]12			> 4	< 4
CN(C)C(=O)c1ccc(O)c2c1C[C@H]1C[C@H]3[C@H](N(C)C)C(O)=C(C(N)=O)C(=O)[C@@]3(O)C(O)=C1C2=O			> 4	< 4
CN(C)c1cc(CNCc2cccn2C)c(O)c2c1C[C@H]1C[C@H]3[C@H](N(C)C)C(O)=C(C(N)=O)C(=O)[C@@]3(O)C(O)=C1C2=O			> 4	< 4
CC(C)NCc1cc(N(C)C)c2c(c1O)C(=O)C1=C(O)[C@]3(O)C(=O)C(C(N)=O)=C(O)[C@@H](N(C)C)[C@@H]3C[C@@H]1C2			> 4	< 4
CCC(=O)Nc1ccc2c(c1O)C(=O)C1=C(O)[C@]3(O)C(=O)C(C(N)=O)=C(O)[C@@H](N(C)C)[C@@H]3C[C@@H]1C2			< 4	< 4
C#CCOC(=O)Nc1ccc2c(c1O)C(=O)C1=C(O)[C@]3(O)C(=O)C(C(N)=O)=C(O)[C@@H](N(C)C)[C@@H]3C[C@@H]1C2			< 4	< 4
CN(C)C(=O)CNc1cc(N(C)C)c2c(c1O)C(=O)C1=C(O)[C@]3(O)C(=O)C(C(N)=O)=C(O)[C@@H](N(C)C)[C@@H]3C[C@@H]1C2			> 4	> 4
CN1CCC(Nc2ccc(O)c3c2C[C@H]2C[C@H]4[C@H](N(C)C)C(O)=C(C(N)=O)C(=O)[C@@]4(O)C(O)=C2C3=O)CC1			> 4	< 4
